Reference: article PMC8348142, “Antimicrobial Peptide Modifications against Clinically Isolated Antibiotic-Resistant Salmonella” (Molecules, 2021)
Marks after values point to notes of the source that are not given here. Ends that are not written are not given here.

How the values were obtained:
Format in all cases: cell-based
[1] = system: clinical Salmonella isolates; assay: MBC, drop plate method, and MBC/MIC mode of action; conditions: for MBC: drop plate on MHA from MIC plate, 37 °C, 18 h, thrice
Procedure: (§1) All 12 isolates of Salmonella used in this study were clinical isolates and anonymous left-overs from laboratory diagnoses. They were maintained in a 20% glycerol (Sigma-Aldrich) stock at −80 °C and further cultured on Mueller-Hinton agar (MHA, Oxoid, Hampshire, UK) at 37 °C for 18 h to obtain single colonies for antimicrobial assays. This study was approved by the Ethics Committee of the Faculty of Tropical Medicine (Mahidol University, Bangkok, Thailand; MUTM-EXMPT 2017-007).
The plate derived from the MIC assay was immediately tested for the MBC using a drop plate method. A volume of 10 µL of the culture from individual wells at MIC, 2MIC, and 4MIC was dropped on MHA plates. […] The experiment was thrice performed.
In order to determine whether the peptides have bacteriostatic or bactericidal activity, a ratio of MBC to MIC (MBC/MIC) was applied. The ratio >4 was indicative of bacteriostatic peptide, and ≤4 was inferred as bactericidal peptide.

sheep red blood cells = assay: Hemolytic activity assay; conditions: for percent hemolysis: 2% sRBCs in PBS, 37 °C, 1 h, OD540, triplicate mean
Procedure: The peptide toxicity to the mammalian system was screened based on the hemolytic test by measuring the hemoglobin released from ruptured red blood cells (RBCs). In this study, sheep RBCs (sRBCs) were employed. They were thrice washed and prepared as a suspension in phosphate-buffered saline (PBS, Oxoid). A suspension of 2% sRBCs was incubated with 2-fold serial dilutions of peptide (final concentrations; 256 to 1 µM in a total volume of 200 µL) at 37 °C for 1 h. The solutions of 0.1% (final concentration) Triton X-100 (Sigma-Aldrich) and PBS containing the peptide solvent were used instead of the peptides as the controls of hemolysis at 100% and 0%, respectively. Thereafter, the post-incubated suspensions were centrifuged (1000× g, 3 min) to pelletize residual sRBCs. The supernatants were then transferred into a flat-bottom PS 96-well plate and were measured the absorbance at 540 nm (OD540) by a microplate reader. The test was conducted in triplicate and the mean OD540 was used to calculate the hemolysis (%) as; ((OD540 (peptide) − OD540 (PBS + peptide solvent))/(OD540 (0.1% Triton X-100) − OD540 (PBS + peptide solvent))) × 100. The hemolytic concentration 50 (HC50), a concentration inducing 50% hemolysis, was determined.
The GraphPad Prism version 7.00 (GraphPad Software, La Jolla, CA, USA) was applied for all statistical analyses and data visualizations. Replicate quantitative results were calculated and shown as mean ± SD, unless otherwise specified. The HC50 values were determined using nonlinear regression analysis. The paired t-test and repeated measures one-way ANOVA with Tukey’s multiple comparison test were applied to compare between 2 groups and among 3 or more groups, respectively. The comparisons were considered as a statistically significant difference when a p-value < 0.05.

[2] = system: clinical Salmonella isolates; assay: MIC, broth microdilution; conditions: for MIC: MHB, 5 × 10^5 CFU/mL, 37 °C, 18 h, duplicate
Procedure: as §1
MIC was determined using the broth microdilution method described by Hancock with some modifications. Briefly, bacterial colonies grown from the MHA were prepared in MHB (Oxoid) as a 0.5 McFarland suspension (which is equal to 1 × 10^8 CFU/mL), and was further 200-fold diluted by the MHB (5 × 10^5 CFU/mL). The bacterial suspension (50 µL) was mixed with 2-fold serial dilutions of peptide (5.5 µL) achieving final concentrations of 256 to 1 µM using a round-bottom polypropylene (PP) 96-well plate (Greiner Bio-One). The plate was incubated at 37 °C for 18 h including incubating peptide free-bacteria as positive growth control, and MHB as negative growth control. After the incubation, the lowest concentration with no visible growth was defined as a MIC value. The assay was performed in a duplicate manner.

[3] = geometric mean over 12 clinical Salmonella isolates

Substance: FIRRIARLLRRIF-NH2 [Kn2-5R-NH2]
- GM of MBC [1, 3]: 4 µM
- MBC ([1]; isolate 5 (Enteritidis)): 4 µM
- MBC ([1]; isolate 7 (Typhimurium)): 4 µM
- MBC ([1]; isolate 11 (I 1,4:i:-)): 4 µM
- MBC ([1]; isolate 18 (Stanley)): 4 µM
- MBC ([1]; isolate 26 (Typhimurium)): 4 µM
- MBC ([1]; isolate 27 (Typhimurium)): 4 µM
- MBC ([1]; isolate 55 (Typhimurium)): 4 µM
- MBC ([1]; isolate 61 (Enteritidis)): 4 µM
- MBC ([1]; isolate 69 (Typhimurium)): 4 µM
- MBC ([1]; isolate 76 (Enteritidis)): 4 µM
- MBC ([1]; isolate 78 (Enteritidis)): 4 µM
- MBC ([1]; isolate 107 (Typhimurium)): 4 µM
- MBC/MIC ratio ([1]; ≤4 bactericidal, >4 bacteriostatic, 12 clinical Salmonella isolates): 1
- HC50 (hemolytic concentration 50) (sheep red blood cells; concentration inducing 50% hemolysis of sRBCs, nonlinear regression, unit (µM)): 67.09 µM
- percent hemolysis (sheep red blood cells; peptide 1 µM): 0.1%
- percent hemolysis (sheep red blood cells; peptide 2 µM): 0.3%
- percent hemolysis (sheep red blood cells; peptide 4 µM): 2 * %
- percent hemolysis (sheep red blood cells; peptide 8 µM): 2.5%
- percent hemolysis (sheep red blood cells; peptide 16 µM): 5.4%
- percent hemolysis (sheep red blood cells; peptide 32 µM): 16.9%
- percent hemolysis (sheep red blood cells; peptide 64 µM): 40.3%
- percent hemolysis (sheep red blood cells; peptide 128 µM): 99.3%
- percent hemolysis (sheep red blood cells; peptide 256 µM): 99.5%
- concentration required for the initiation of hemolysis (sheep red blood cells; sRBCs, 60 min, 256–1 µM tested): 1000 nM
- GM of MIC (GMMIC) [2, 3]: 4 µM
- MIC ([2]; isolate 5 (Enteritidis, blood; resistant AMP, SXT, KZ)): 4 µM
- MIC ([2]; isolate 7 (Typhimurium, blood; resistant AMP, CN, TE, NA, SXT)): 4 µM
- MIC ([2]; isolate 11 (I 1,4:i:-, blood; resistant AMP, TE, NA, SXT, C)): 4 µM
- MIC ([2]; isolate 18 (Stanley, urine; resistant TE, SXT, C)): 4 µM
- MIC ([2]; isolate 26 (Typhimurium, urine; resistant TZP, TE, NA)): 4 µM
- MIC ([2]; isolate 27 (Typhimurium, stool; resistant AMP, TE, NA, SXT, CIP)): 4 µM
- MIC ([2]; isolate 55 (Typhimurium, blood; resistant AMP, SXT, C, TE)): 4 µM
- MIC ([2]; isolate 61 (Enteritidis, blood; resistant AMP, TE, NA, SXT)): 4 µM
- MIC ([2]; isolate 69 (Typhimurium, stool; resistant AMP)): 4 µM
- MIC ([2]; isolate 76 (Enteritidis, CSF; resistant NA)): 4 µM
- MIC ([2]; isolate 78 (Enteritidis, blood; resistant TE, CIP, NA, SXT)): 4 µM
- MIC ([2]; isolate 107 (Typhimurium, stool; susceptible)): 4 µM
